Measured values published in US4963565A, “In vivo treatment of mycobacterial infections with 6-cyclo octylamino-5,8-quinoline quinone” (priority 1986, dated 1990).

What was measured:
Mycobacterium leprae = test: Inhibitory activity against Mycobacterium leprae in the macrophage model (3H thymidine uptake); type: cell-based, M. leprae (in human monocyte derived macrophages)
Text: The effect of CQQ on Mycobacterium leprae, the causative agent for leprosy, was studied using monocyte derived macrophages obtained from human volunteers.
Blood from a healthy volunteer was drawn and monocytes were removed and cultured to the macrophage stage. This required about 7 days. The macrophages were then exposed to M. leprae bacilli obtained from biopsy specimens of leprosy patients. One sample was exposed to CQQ, while other samples were exposed to DDS (diaminodiphenyl sulphone), the standard antileprosy drug, or rifampin, at various concentrations. Macrophages were exposed to radiolabelled tritium (^3 H) labeled thymidine, and its uptake was measured using a liquid scintillation counter. A control model of M. leprae exposed macrophages, which was not treated was used as well. The uptake of thymidine is a measure of antimycobacterial activity.

M. intracellulare = test: In vitro activity against serovars of M. intracellulare, radiometric (Bactec) method; type: cell-based; conditions: comparison with CQQ; no data shown
Procedure: A study of the effect of CQQ on different serovars of M. intracellulare in vitro was performed using the radiometric (Bactec) method. Maximum growth index (GI) of 999 was determined (for control models) in terms of the number of days necessary for the culture to reach this stage. GI is measured using the special instrument which reads the amount of ^14 C labelled CO2 liberated from the strains using the ^14 C labelled substrates.

Row | SMILES | Counts per minute (3H thymidine uptake) (Mycobacterium leprae; Sample I, 3 NG/ML) [COUNTS PER MINUTE] | Counts per minute (3H thymidine uptake) (Mycobacterium leprae; Sample II, 3 NG/ML) [COUNTS PER MINUTE] | Counts per minute (3H thymidine uptake) (Mycobacterium leprae; Sample III, 3 NG/ML) [COUNTS PER MINUTE] | Effectiveness on M. intracellulare strains (M. intracellulare) | Counts per minute (3H thymidine uptake) (Mycobacterium leprae; Sample I, 10 NG/ML) [COUNTS PER MINUTE] | Counts per minute (3H thymidine uptake) (Mycobacterium leprae; Sample II, DDS 10 NG/ML) [COUNTS PER MINUTE] | Counts per minute (3H thymidine uptake) (Mycobacterium leprae; Sample III, DDS 10 NG/ML) [COUNTS PER MINUTE]
1 | CO[C@H]1/C=C/O[C@@]2(C)Oc3c(C)c(O)c4c(O)c(c(/C=N/N5CCN(C)CC5)c(O)c4c3C2=O)NC(=O)/C(C)=C\C=C\[C@H](C)[C@H](O)[C@@H](C)[C@@H](O)[C@@H](C)[C@H](OC(C)=O)[C@@H]1C [rifampin, reference compound] | 82 | 80 | 82 | only effective on a few strains |  |  | 
2 | Nc1ccc(S(=O)(=O)c2ccc(N)cc2)cc1 [DDS, diaminodiphenyl sulphone, reference compound] |  |  |  |  | 84 | 78 | 84
